# Results as given in paper PMC6331810, “Novel Coumarin-Containing Aminophosphonatesas Antitumor Agent: Synthesis, Cytotoxicity, DNA-Binding and Apoptosis Evaluation” (Molecules, 2015).
# What was measured:
# [1] = test system: HUVEC (Human Umbilical Vein Endothelial Cells); test: MTT cytotoxicity assay, HUVEC normal cells; type: cell-based; conditions: no irradiation, mean ± SD of three experiments
# Experimental: (§1) Cell Lines. The following in vitro human cancer cell lines were used: HCT-116 (Human colorectal cells), human KB (human nasopharyngeal carcinoma cells), MGC-803 (human lung adenocarcinoma cell line), HUVEC (Human Umbilical Vein Endothelial Cells). The cell lines (HCT-116, KB, MGC-803 and HUVEC) were purchased from the Cell Resource Center of Shanghai Institutes for Biological Sciences, the Academy of Sciences of China.
# (§2) Cell Culture. HCT-116, human KB, MGC-803 and HUVEC cells were cultured in Dulbecco Modified Eagle Medium (DMEM; HyClone, Los Angeles, CA, USA), containing 4.0 mM L-Glutamine and 4500 mg/L Glucose, supplemented with 10% (v/v) foetalbovine serum (FBS; HyClone). The cell culturemedia was supplemented with penicillin/streptomycin at 100 Units/mL as adherent monolayers. Cell cultures were kept in a humidified incubator with 5% CO2 at 37 °C. Stock solutions were prepared in dimethyl sulfoxide (DMSO) and further dilutions were made with fresh culture medium. The concentration of DMSO in the final culture medium was 1%, which had no effect on the cell viability.
# (§3) MTT Assay. Chemosensitivity was assessed using 3-(4,5-dimethylthiazol-2-yl)-2,5-diphenyl tetrazolium bromide (MTT) assay. Briefly, exponentially growing HCT-116 (3000–4000 cells/well), human KB (2000–3000 cells/well) and MGC 803 (2000–3000 cells/well) were seeded into 96-well plates and treated with indicated concentrations of samples for 48 h, and then […] of MTT (10 mg/mL) was added. After incubation for 4 h at 37 °C, the purple formazan crystals (i.e., a reduced form of MTT) generated from viable cells were dissolved by adding 100 μL DMSO in each well. The plates were swirled gently for 10 min to dissolve the precipitate, and quantified by measuring the optical density (OD) of the plates at a wavelength of 490 nm on plate reader (TECAN infinite M1000). Each concentration was repeated in three wells and the same experimental conditions were provided for all compounds and MTT analysis was repeated three times for each cell line.
# [2] = test system: HCT-116 (Human colorectal cells); test: MTT cytotoxicity assay, HCT-116; type: cell-based; conditions: for IC50: MTT, 48 h, no irradiation, mean ± SD of three experiments
# Experimental: as §1, §2, §3
# [3] = test system: CT-DNA; test: Spectrofluorimetric titration with CT-DNA (Stern-Volmer and binding constants); set-up: species or system calf; conditions: from F0/F-1 vs [DNA]; Tris-HCl buffer pH 7.2
# Experimental: The DNA binding properties of compounds 8a–8j were evaluated based on their affinity or interaction with CT-DNA, measured with fluorescence spectrometric titration.
# The calibration curve for determination of DNA was constructed by adding different proportion of DNA to a 2.0 × 10^−3 M compound 8j solution (pH = 7.2 Tris-HCl buffer). […] [Q] is the concentration of quencher. KSV is the Stern-Volmer constant and KQ is the bimolecular quenching rate constant. τ0 is the lifetime of the fluorophore in the absence of quencher and for most biomolecules τ0 is about 10^−8 s. The Stern-Volmer constant, KSV, for compound 8j has been determined from the plot of F0/F-1 vs. [DNA] (see Figure 2) and found to be 5.11 × 10^2 M^−1.
# When small molecules binding independently to a set of equivalent sites on a macromolecule, the equilibrium between free and bound molecules is given by the equation [28]: (2) lg (F0/F-1) = lgKb + nlg[Q] where Kb and n are the binding constant and the number of binding sites, respectively, which could be got from the curve of lg(F0/F-1) vs. lg[Q]. The plot of lg(F0/F-1) vs. lg[DNA] has been shown in Figure 3 for compound 8j and indicates a simple binding process for the compound.
# All fluorescence experiments were carried out on a Perkin-Elmer LS50B luminescence spectrometer. Fluorescence spectra were measured at rt using quartz cells of 1cm path. To the solutions of the drugs (2.0 × 10^−3 M) in 2.5 mL Tris-HCl buffer (pH = 7.2) were added aliquots of CT-DNA (2.0 × 10^−3 M) solution containing drugs (2.0 × 10^−3 M) in 2.5 mL Tris-HCl buffer (pH = 7.2). This operation ensured that the concentration of CT-DNA increased gradually from 0 to 360 µM, while the concentrations of drugs were kept constant. The mixing was achieved by stirring for 10min. Then, the corresponding fluorescence spectra were measured (ex 325 nm, ex/em 1.5 nm/1.5 nm). Binding constants were derived from the modified.
# [4] = test system: GelRed/CT-DNA; test: GelRed-DNA competitive binding (fluorescence quenching); set-up: species or system calf; conditions: I0/I vs [Q]; [GelRed]/[DNA] = 1:10, ex 350 nm, em 590 nm
# [5] = test system: CT-DNA; test: Circular dichroism spectra of CT-DNA; type: binding, calf; conditions: [compound]/[DNA] 1:10; 1.5 × 10^−4 M DNA, 1.5 × 10^−5 M compound
# Experimental: CD absorption spectra of DNA were measured in TBS at a 100 nm/min scan rate in the wavelength range from 200 to 500 nm, with 1.5 × 10^−4 M DNA in the absence and presence of each compound of 1.5 × 10^−5 M, respectively. The CD signal of TBS was taken as the background and subtracted from the spectra. All the spectroscopic experiments were performed at 25 °C.
Compound,IC50 [1] [µM],IC50 [2] [µM],KSV (Stern-Volmer constant) [3] [M⁻¹],Kq (quenching constant of GelRed bound to DNA) [4] [M⁻¹],Negative AI decrease (CD absorption peak of CT-DNA at 247 nm) [5] [%],Positive AI decrease (CD absorption peak of CT-DNA at 281 nm) [5] [%],"IC50 ([1]; Homo sapiens, HUVEC, light or radiation study) [µM]","Fold of IC50 against HCT-116 relative to unsubstituted parent compound ([2]; HCT-116, vs 4-MU)","IC50 ([2]; Homo sapiens, HCT-116, light or radiation study) [µM]"
"CCOP(=O)(OCC)C(NC(=O)CCOc1ccc2c(C)cc(=O)oc2c1)c1cccc(Br)c1 (stereo not shown) [Compound 8f, Diethyl(3-(4-methyl-2-oxo-2H-chromen-7-yloxy)propanamido)(3-bromophenyl)methylphospho-nate]",> 100,25.8 ± 1.21,412,1730,26.9,23.1,,,
"CCOP(=O)(OCC)C(C)(NC(=O)CCOc1ccc2c(C)cc(=O)oc2c1)c1ccccc1 (stereo not shown) [Compound 8j, Diethyl 1-(3-(4-methyl-2-oxo-2H-chromen-7-yloxy)propanamido)-1-phenylethylphosphonate]",,,511,2350,30.4,26.82,> 100,about 12 fold,8.68 ± 3.2
